Results published in US20240158446A1, “CYCLIC COMPOUND HAVING SELECTIVE INHIBITORY ACTION ON KRAS OVER HRAS AND NRAS” (CHUGAI SEIYAKU KABUSHIKI KAISHA, priority 2021, published 2024).
Read-outs that look alike come from different tables or passages of the source. *1 amine or outer side, *2 acyl side, *3 side chain or, on linkers, in order; H or OH if unused. Where a SMILES comes first, the peptide text is derived from it. Bridges are numbered along the chain shown (N, C = ends). [ ]: non-standard residue; d: D form. The star is where a group is joined. hPhe(3-Cl-4-CF3) = N[C@@H](CCc1ccc(C(F)(F)F)c(Cl)c1)C(=O)O; NPrPhe(4-CF3) = CCCN[C@@H](Cc1ccc(C(F)(F)F)cc1)C(=O)O; X42 = Cc1ccc(C[C@@H](C(=O)[*:2])N(CC2CCC2)[*:1])cc1; Piperazinyl(4-(3-oxetanyl)) = C1OCC1N1CCN(*)CC1; NEtPhe(4-Me) = CCN[C@@H](Cc1ccc(C)cc1)C(=O)O; NMeGly(cPent) = CN[C@H](C(=O)O)C1CCCC1; Pro(4,4-Me2) = CC1(C)CN[C@H](C(=O)O)C1; NMeD = CN[C@@H](CC(=O)O)C(=O)O; NMeL = CN[C@@H](CC(C)C)C(=O)O; Morpholide = C1CN(*)CCO1; NMeA = CN[C@@H](C)C(=O)O; Ac5c = NC1(C(=O)O)CCCC1; Aze = O=C(O)[C@@H]1CCN1; NcPrGly = O=C(O)CNC1CC1; Sar = CNCC(=O)O

Key:
[1] = target: GDP-bound NRAS wild-type protein (Homo sapiens, UniProt P01111); test: Binding to NRAS by surface plasmon resonance (SPR), Single Cycle Kinetics; conditions: for NRAS/KRAS (ratio of KD value for NRAS to KD value for KRAS) / NRAS/KRAS (ratio of KD value with respect to NRAS to KD value with respect to KRAS): SPR, GDP-bound NRAS wild-type protein vs GDP-bound KRAS wild-type protein; for NRAS/KRAS (ratio of KD value with respect to GDP-bound NRAS wild-type protein to KD value with respect to KRAS): SPR KD ratio NRAS/KRAS, class symbols
Chain of GDP-bound NRAS wild-type protein (P01111 whole entry): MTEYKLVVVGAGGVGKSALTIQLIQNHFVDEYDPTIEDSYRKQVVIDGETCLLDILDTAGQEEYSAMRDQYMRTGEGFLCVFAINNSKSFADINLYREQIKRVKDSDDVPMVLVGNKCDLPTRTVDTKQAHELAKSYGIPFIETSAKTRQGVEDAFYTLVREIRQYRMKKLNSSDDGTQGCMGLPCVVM

[2] = target: GDP-bound HRAS wild-type protein (Homo sapiens, UniProt P01112); test: Binding to HRAS by surface plasmon resonance (SPR), Single Cycle Kinetics; conditions: for HRAS/KRAS (ratio of KD value for HRAS to KD value for KRAS) / HRAS/KRAS (ratio of KD value with respect to HRAS to KD value with respect to KRAS): SPR, GDP-bound HRAS wild-type protein vs GDP-bound KRAS wild-type protein; for HRAS/KRAS (ratio of KD value with respect to GDP-bound HRAS wild-type protein to KD value with respect to KRAS): SPR KD ratio HRAS/KRAS, class symbols
Chain of GDP-bound HRAS wild-type protein (P01112 whole entry): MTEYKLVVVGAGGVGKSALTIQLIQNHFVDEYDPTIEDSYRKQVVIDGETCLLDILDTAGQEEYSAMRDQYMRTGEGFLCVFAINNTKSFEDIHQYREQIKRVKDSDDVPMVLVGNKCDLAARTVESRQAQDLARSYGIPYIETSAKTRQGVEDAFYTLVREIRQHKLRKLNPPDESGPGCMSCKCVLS

[3] = target: GDP-bound KRAS wild-type protein (Homo sapiens, UniProt P01116); test: Binding to KRAS by surface plasmon resonance (SPR), Single Cycle Kinetics; conditions: GDP-bound KRAS wild-type protein, read-out: KRAS KD
Chain of GDP-bound KRAS wild-type protein (P01116 whole entry): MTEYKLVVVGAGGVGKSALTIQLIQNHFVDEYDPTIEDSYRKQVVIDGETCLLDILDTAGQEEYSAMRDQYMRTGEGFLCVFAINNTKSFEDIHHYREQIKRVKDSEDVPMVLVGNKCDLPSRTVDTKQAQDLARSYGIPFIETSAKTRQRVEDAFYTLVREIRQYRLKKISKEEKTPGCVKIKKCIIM

[4] = SPR Single Cycle Kinetics, 1:1 binding model

SMILES | Kd [3, 4] [nM] | Kd ([3]; SPR, Single Cycle Kinetics) [nM] | NRAS/KRAS (ratio of KD value for NRAS to KD value for KRAS) [1] | HRAS/KRAS (ratio of KD value for HRAS to KD value for KRAS) [2] | NRAS/KRAS (ratio of KD value with respect to GDP-bound NRAS wild-type protein to KD value with respect to KRAS) [1] | HRAS/KRAS (ratio of KD value with respect to GDP-bound HRAS wild-type protein to KD value with respect to KRAS) [2] | NRAS/KRAS (ratio of KD value with respect to NRAS to KD value with respect to KRAS) [1] | HRAS/KRAS (ratio of KD value with respect to HRAS to KD value with respect to KRAS) [2]
CC[C@H](C)[C@@H]1NC(=O)[C@H](CC(C)C)N(C)C(=O)C[C@@H](C(=O)N2CCOCC2)N(C)C(=O)[C@H](C2CCCC2)N(C)C(=O)C2(CCCC2)NC(=O)[C@@H]2CCCN2C(=O)[C@H](CCc2ccc(C(F)(F)F)c(Cl)c2)NC(=O)CN(C)C(=O)[C@H](Cc2ccc(C)cc2)N(CC2CCC2)C(=O)CN(C)C(=O)CN(C)C1=O [PP0095] ([NMeL]I[Sar][Sar][X42][Sar][hPhe(3-Cl-4-CF3)]P[Ac5c][NMeGly(cPent)][NMeD]-Morpholide; lactam N-11) | 0.79 | – | C (A compound having a KD ratio of 0.1 or more and less than 3 is denoted as C) | C (A compound having a KD ratio of 0.1 or more and less than 3 is denoted as C) | – | – | – | –
CC[C@H](C)[C@@H]1NC(=O)[C@H](CC(C)C)N(C)C(=O)C[C@@H](C(=O)N(C)C)N(C)C(=O)[C@H](C2CCCC2)N(C)C(=O)C2(CCC2)NC(=O)[C@@H]2CCCN2C(=O)[C@H](CCc2cc(F)c(C(F)(F)F)c(F)c2)NC(=O)CN(C)C(=O)[C@H](Cc2ccc(C(F)(F)F)cc2)N2CCCCC[C@@H](C2=O)N(C)C(=O)CN(C)C1=O [PP0512] | 0.37 | – | – | – | – | – | B (a compound having 3 or more and less than 10 is denoted as B) | B (a compound having 3 or more and less than 10 is denoted as B)
CCC[C@H]1C(=O)N[C@@H]([C@@H](C)CC)C(=O)N(C)CC(=O)N(C)[C@H]2C/C=C\CCN(C2=O)[C@@H](Cc2ccc(C)cc2)C(=O)N(C)CC(=O)N[C@@H](CCc2ccc3c(C)cn(C)c3c2)C(=O)N2C[C@H](OCC)C[C@H]2C(=O)NC2(CC(C)(C)C2)C(=O)N(C)[C@@H](C2CCCC2)C(=O)N(C)[C@H](C(=O)N(C)C)CC(=O)N1C [PP2899] | 0.85 | – | – | – | A (a compound having 10 or more and less than 20 is denoted as A) | B (a compound having 3 or more and less than 10 is denoted as B) | – | –
CCO[C@@H]1C[C@H]2C(=O)NC3(CC(C)(C)C3)C(=O)N(C)[C@@H](C3CCCC3)C(=O)N(C)[C@H](C(=O)N(C)C)CC(=O)N(C)[C@H]3CCCCCCc4ccc(cc4)C[C@@H](C(=O)N(C)CC(=O)N[C@@H](CCc4ccc(Cl)c(Cl)c4)C(=O)N2C1)N1CC/C=C\C[C@@H](C1=O)N(C)C(=O)CN(C)C(=O)[C@H]([C@@H](C)CC)NC3=O [PP3071] | – | 0.12 | A (a compound having 10 or more and less than 20 is denoted as A) | B (a compound having 3 or more and less than 10 is denoted as B) | – | – | – | –

Further compounds by falling Kd [3, 4], results first:

Kd [3, 4] [nM] | Kd ([3]; SPR, Single Cycle Kinetics) [nM] | SMILES | NRAS/KRAS (ratio of KD value for NRAS to KD value for KRAS) [1] | HRAS/KRAS (ratio of KD value for HRAS to KD value for KRAS) [2] | NRAS/KRAS (ratio of KD value with respect to GDP-bound NRAS wild-type protein to KD value with respect to KRAS) [1] | HRAS/KRAS (ratio of KD value with respect to GDP-bound HRAS wild-type protein to KD value with respect to KRAS) [2] | NRAS/KRAS (ratio of KD value with respect to NRAS to KD value with respect to KRAS) [1] | HRAS/KRAS (ratio of KD value with respect to HRAS to KD value with respect to KRAS) [2]
0.34 | – | CCCN1C(=O)CN(C)C(=O)CN(C2CC2)C(=O)[C@H]([C@@H](C)CC)NC(=O)[C@H](CC(C)C)N(C)C(=O)C[C@@H](C(=O)N2CCOCC2)N(C)C(=O)[C@H](C2CCCC2)N(C)C(=O)C2(CCCC2)NC(=O)[C@@H]2CCCN2C(=O)[C@H](CCc2ccc(C(F)(F)F)c(Cl)c2)NC(=O)CN(C)C(=O)[C@@H]1Cc1ccc(C(F)(F)F)cc1 [PP0252] ([NMeL]I[NcPrGly][Sar][NPrPhe(4-CF3)][Sar][hPhe(3-Cl-4-CF3)]P[Ac5c][NMeGly(cPent)][NMeD]-Morpholide; lactam N-11) | B (a compound having 3 or more and less than 10 is denoted as B) | B (a compound having 3 or more and less than 10 is denoted as B) | – | – | – | –
0.32 | – | CCCN1C(=O)[C@@H]2CCN2C(=O)[C@H](C)N(C)C(=O)[C@H]([C@@H](C)CC)NC(=O)[C@H](CC(C)C)N(C)C(=O)C[C@@H](C(=O)N2CCN(C3COC3)CC2)N(C)C(=O)[C@H](C2CCCC2)N(C)C(=O)C2(CCCC2)NC(=O)[C@@H]2CCCN2C(=O)[C@H](CCc2ccc(C(F)(F)F)c(Cl)c2)NC(=O)CN(C)C(=O)[C@@H]1Cc1ccc(C(F)(F)F)cc1 [PP0184] ([NMeL]I[NMeA][Aze][NPrPhe(4-CF3)][Sar][hPhe(3-Cl-4-CF3)]P[Ac5c][NMeGly(cPent)][NMeD]-{Piperazinyl(4-(3-oxetanyl))}; lactam N-11) | C (A compound having a KD ratio of 0.1 or more and less than 3 is denoted as C) | B (a compound having 3 or more and less than 10 is denoted as B) | – | – | – | –
0.16 | – | CC[C@H](C)[C@@H]1NC(=O)[C@@H]2CCC/C=C/c3ccc(cc3)C[C@@H](C(=O)N(C)CC(=O)N[C@@H](CCc3ccc(Cl)c(Cl)c3)C(=O)N3C[C@H](OC(C)C)C[C@H]3C(=O)NC3(CC(C)(C)C3)C(=O)N(C)[C@@H](C3CCCC3)C(=O)N(C)[C@H](C(=O)N3CCCC3)CC(=O)N2C)N2CC/C=C\C[C@@H](C2=O)N(C)C(=O)CN(C)C1=O [PP2596] | – | – | A (a compound having 10 or more and less than 20 is denoted as A) | A (a compound having 10 or more and less than 20 is denoted as A) | – | –
0.074 | – | CC[C@H](C)[C@@H]1NC(=O)[C@H](C)N(C)C(=O)C[C@@H](C(=O)N2CCOCC2)N(C)C(=O)[C@H](C2CCCC2)N(C)C(=O)C2(CCCC2)NC(=O)[C@@H]2CCCN2C(=O)[C@H](CCc2ccc(C(F)(F)F)c(Cl)c2)NC(=O)CN(C)C(=O)[C@H](Cc2ccc(C)cc2)N(CC)C(=O)[C@@H]2CCN2C(=O)[C@H](C)N(C)C1=O [PP0007] ([NMeA]I[NMeA][Aze][NEtPhe(4-Me)][Sar][hPhe(3-Cl-4-CF3)]P[Ac5c][NMeGly(cPent)][NMeD]-Morpholide; lactam N-11) | C (A compound having a KD ratio of 0.1 or more and less than 3 is denoted as C) | C (A compound having a KD ratio of 0.1 or more and less than 3 is denoted as C) | – | – | – | –
0.07 | – | CCCN1C(=O)[C@@H]2CCN2C(=O)CN(C)C(=O)[C@H]([C@@H](C)CC)NC(=O)[C@H](CC(C)C)N(C)C(=O)C[C@@H](C(=O)N2CCOCC2)N(C)C(=O)[C@H](C2CCCC2)N(C)C(=O)C2(CCCC2)NC(=O)[C@@H]2CC(C)(C)CN2C(=O)[C@H](CCc2ccc(C(F)(F)F)c(Cl)c2)NC(=O)CN(C)C(=O)[C@@H]1Cc1ccc(C(F)(F)F)cc1 [PP0456] ([NMeL]I[Sar][Aze][NPrPhe(4-CF3)][Sar][hPhe(3-Cl-4-CF3)][Pro(4,4-Me2)][Ac5c][NMeGly(cPent)][NMeD]-Morpholide; lactam N-11) | – | – | – | – | C (A compound having a KD ratio of 0.1 or more and less than 3 is denoted as C) | C (A compound having a KD ratio of 0.1 or more and less than 3 is denoted as C)
0.025 | – | CCC[C@H]1C(=O)N[C@@H]([C@@H](C)CC)C(=O)N(C)CC(=O)N(C)[C@H]2CCCCN(C2=O)[C@@H](Cc2ccc(C(F)(F)F)cc2)C(=O)N(C)CC(=O)N[C@@H](CCc2cc(F)c(C(F)(F)F)c(F)c2)C(=O)N2C[C@H](OCC)C[C@H]2C(=O)NC2(CCC2)C(=O)N(C)[C@@H](C2CCCC2)C(=O)N(C)[C@H](C(=O)N(C)C)CC(=O)N1C [PP0694] | – | – | – | – | C (A compound having a KD ratio of 0.1 or more and less than 3 is denoted as C) | C (A compound having a KD ratio of 0.1 or more and less than 3 is denoted as C)
